This is an account of results in patent US20220221458A1, “NOROVIRUS-BINDING PEPTIDE” (Kao Corporation, priority 2019, published 2022).

This assay has as its system norovirus VLPs (GII.4, GII.3, GII.17). Briefly: In vitro selection by cDNA display against VLPs with appearance frequency analysis of sequences. To be noted: count among peptide aptamer sequences obtained after in vitro selection cycles (7 cycles GII.4, 5 cycles GII.3 and GII.17).

Method: The constructed cDNA display and VLPs were incubated in 100 μL of a dialysis selection buffer (20 mM HEPES (pH 7.4), 150 mM NaCl, and 0.05% s Tween 20) at the concentrations shown in Table 9 below at 25° C. for 30 minutes. Subsequently, the resultant was diluted to 1 mL with the dialysis selection buffer, and was put in Float-A-Lyzer G2 Dialysis Device CE, 1000kD MWCO (manufactured by Spectrum Laboratories, Inc.) and was dialyzed with 1 L of the dialysis selection buffer as the external solution at 25° C. During the dialysis, the external solution was replaced with new one 3 times every 2 hours, and the dialysis was performed overnight (for 8 hours) after the 4th replacement. The dialysis product was concentrated with Amicon Ultra 100K (manufactured by Merck Millipore S.A.S.) at 14,000×g for 5 minutes.
To an immunoplate (C-BOTTOM, CLEAR, MICROLON (registered trademark), HIGH BINDING, manufactured by Greiner Bio-One), 100 μL of 3 μg/mL GII.3 or GII.17 VLP solution was added and immobilization was performed at 4° C. overnight. Subsequently, the solution was discarded, and 200 μL of a blocking agent (EMD Millipore™ Blok™ NSB Blocking agents, Thermo Fisher Scientific) was added, followed by gently stirring at room temperature for 2 hours for blocking. On this occasion, wells not immobilizing the VLP were also subjected to similar blocking to be used in preselection.
The solution was discarded from the wells, the wells were washed with 200 μL of a wash buffer (10 mM Hepes (pH 7.4), 150 mM NaCl, and 0.05% Tween 20) three times, and 100 μL of cDNA display (constructed from 1.5 pmol of mRNA-linker) was then put in the wells not immobilizing the VLP, followed by gently stirring at room temperature for 30 minutes to perform preselection. Subsequently, the supernatant containing cDNA display that had not bound to the blocking agent was put in the wells immobilizing the VLP, followed by gently stirring at room temperature for 30 minutes to be bound to the VLP. The supernatant was discarded, washing with 100 μL of the wash buffer was performed four times, and 100 μL of a 5′ SDS solution was then added, followed by incubation at 50° C. for 15 minutes to elute the bound cDNA display.
Subsequently, the VLP-cDNA display complex obtained above was diluted to 100 μL with a dialysis selection buffer, and 10 μL of a coprecipitating agent (Quick-Precip Plus Solution, manufactured by EdgeBio) and 220 μL of 100% ethanol were added, followed by centrifugation at 20,000×g for 5 minutes. Subsequently, the supernatant was discarded, and 1 mL of 70, ethanol was added for rinsing. […] The PCR program was (a) 98° C. for 2 minutes, (b) 95° C. for 20 seconds, (c) 69° C. for 20 seconds, (d) 72° C. for 20 seconds (steps (b) to (d) were performed 25 cycles), and (e) 72° C. for 1 minute.
After the in vitro selection cycle (7 cycles for GII.4 and 5 cycles for GII.3 and GII.17 based on the libraries of 7 cycles obtained by GII.4 dialysis), a sequence library was prepared by the following method, and the sequence information was analyzed. The preparation of the sequence library and the sequencing were performed according to the 16S Metagenomic Sequencing Library Preparation protocol (manufactured by Illumina, Inc.).
The Fastq file of the obtained sequence was converted to a Fasta file, all of the obtained sequences were simultaneously translated from the first base of the start codon (ATG) at position 115 to the third base of the cysteine codon (TGC) at position 156 of the library sequence (SEQ ID NO: 279) using software MEGA.

As to “231 (RGGRTL; Designed peptide) [compound 231]”, the “Appearance Frequency” value turned out to be 6.

In the case of “158 (VWYWTS; Designed peptide) [compound 158]”, the “Appearance Frequency” value came to 7.

“11 (GHPNPR; Designed peptide) [compound 11]”: the “Appearance Frequency” value came to 15.

Turning to “8 (PCSYFS; Designed peptide) [compound 8]”, the “Appearance Frequency” value is 17.

In the case of “265 (WVFVKH; Designed peptide) [compound 265]”, the “Appearance Frequency” value worked out at 6.

Take “91 (SSLALH; Designed peptide) [compound 91]”: the “Appearance Frequency” value is 8.

As for “123 (KRGGMV; Designed peptide) [compound 123]”, the “Appearance Frequency” value came out at 7.

“267 (YKASHG; Designed peptide) [compound 267]”: the “Appearance Frequency” value is reported as 6.

Regarding “250 (SKVIRW; Designed peptide) [compound 250]”, the “Appearance Frequency” value is 6.

On to “228 (QRVSFL; Designed peptide) [compound 228]”, for which the “Appearance Frequency” value came out at 6.

For “221 (NRVKPR; Designed peptide) [compound 221]”, the “Appearance Frequency” value turned out to be 6.

In the case of “248 (SHWRSY; Designed peptide) [compound 248]”, the “Appearance Frequency” value worked out at 6.

On to “176 (FQYAHW; Designed peptide) [compound 176]”, for which the “Appearance Frequency” value amounted to 6.

For “48 (VDSTSV; Designed peptide) [compound 48]”, the “Appearance Frequency” value is on record as 10.

Consider “155 (VMVGPS; Designed peptide) [compound 155]”, for which the “Appearance Frequency” value was found to be 7.

Regarding “64 (RKLFRN; Designed peptide) [compound 64]”, the “Appearance Frequency” value turned out to be 9.

Turning to “145 (RRRTFH; Designed peptide) [compound 145]”, the “Appearance Frequency” value is reported as 7.

Take “61 (PVRALC; Designed peptide) [compound 61]”: the “Appearance Frequency” value was determined as 9.

In the case of “75 (FTMHTN; Designed peptide) [compound 75]”, the “Appearance Frequency” value worked out at 8.

On to “210 (LSLRSQ; Designed peptide) [compound 210]”, for which the “Appearance Frequency” value turned out to be 6.

Take “14 (RSVRMH; Designed peptide) [compound 14]”: the “Appearance Frequency” value is 14.

Consider “33 (SRHCVP; Designed peptide) [compound 33]”, for which the “Appearance Frequency” value stood at 11.

As to “56 (HRRGPS; Designed peptide) [compound 56]”, the “Appearance Frequency” value worked out at 9.

In the case of “44 (QSSKKF; Designed peptide) [compound 44]”, the “Appearance Frequency” value was 10.

“234 (RHGQFF; Designed peptide) [compound 234]”: the “Appearance Frequency” value amounted to 6.

As for “135 (NRHLDP; Designed peptide) [compound 135]”, the “Appearance Frequency” value worked out at 7.

Regarding “263 (VSDPVV; Designed peptide) [compound 263]”, the “Appearance Frequency” value is reported as 6.

For the substance “110 (GFAISR; Designed peptide) [compound 110]”, the “Appearance Frequency” value stood at 7.

In the case of “89 (SRSICS; Designed peptide) [compound 89]”, the “Appearance Frequency” value is given as 8.

“77 (GMLRFP; Designed peptide) [compound 77]”: the “Appearance Frequency” value is on record as 8.

Turning to “28 (VMMQCP; Designed peptide) [compound 28]”, the “Appearance Frequency” value is 12.

With “104 (DRVQSR; Designed peptide) [compound 104]”, the “Appearance Frequency” value is on record as 7.

Turning to “130 (NASRFY; Designed peptide) [compound 130]”, the “Appearance Frequency” value is listed as 7.

Turning to “62 (RALAKR; Designed peptide) [compound 62]”, the “Appearance Frequency” value came to 9.

On to “187 (HDYVSE; Designed peptide) [compound 187]”, for which the “Appearance Frequency” value was found to be 6.

Take “230 (QYCFVG; Designed peptide) [compound 230]”: the “Appearance Frequency” value is 6.
